Measurements as given in patent publication US20260240901A1, “COMBINATION OF NITROUS OXIDE AND 5-HT2A RECEPTOR AGONISTS” (Cybin IRL Limited, priority 2022, published 2026).
Like-named read-outs stand apart in the source and are kept apart here.

Assays:
[1] = in vivo; cited from earlier work
c-fos = assay: RTqPCR gene expression in mouse left frontal cortex: c-fos; settings: 60 min treatment + 60 min room air, DMT-d10 5.6 mg/kg s.c., N2O 50% inhaled
[2] = system: early growth response protein 2 (egr2); assay: RTqPCR gene expression in mouse left frontal cortex: egr2; settings: 60 min treatment + 60 min room air, DMT-d10 5.6 mg/kg s.c., N2O 50% inhaled
bdnf = assay: RTqPCR gene expression in mouse left frontal cortex: bdnf; format: in vivo, mice (C57B16/J); settings: 60 min treatment + 60 min room air, DMT-d10 5.6 mg/kg s.c., N2O 50% inhaled
[3] = system: serum/glucocorticoid regulated kinase 1 (sgk1); assay: RTqPCR gene expression in mouse left frontal cortex: sgk1; settings: 60 min treatment + 60 min room air, DMT-d10 5.6 mg/kg s.c., N2O 50% inhaled
[4] = Brain pharmacokinetics of co-administered DMT and DMT-d10 in male rats (IV bolus); format: in vivo, Sprague Dawley rats; settings: for Brain Cmax: IV bolus 1 mg/kg each, co-dosed (Group 4)
Description: Experimental Design. This was a single dose study with 4 treatment groups as outlined in Table 1.
Sampling collection. PK samples (0.3 mL) were collected from the jugular vein by venepuncture into tubes containing K2EDTA anticoagulant at the following sampling times: Group 1 (IV) and Group 2 (oral) serial plasma collection at 0.083, 0.25, 0.5, 1, 3, 8 and 24 hr postdose; Group 4 (IV) composite plasma and brain collection at 0.083, 0.25, 0.5 and 1 hr postdose; Group 6 (inhalation) serial plasma collection at 0.333, 0.533, 0.833, 1.333, 3.333, 8.333 and 24.333 after start of inhalation.
Brain samples: After extraction of whole brain from the cranium, brains were rinsed, patted dry, weighed, placed into tubes and frozen on dry ice. Thereafter, they were stored at −70 […] pending analysis.
Bioanalysis. Plasma and brain homogenates were analyzed for DMT and DMT-d10 using an established LC-MS/MS assay.) Pharmacokinetic parameters were determined from the DMT and DMT-d 10 plasma and brain concentration-time profiles using commercially available software (Phoenix® WinNonlin®).

homer1 = assay: RTqPCR gene expression in mouse left frontal cortex: homer1; format: in vivo, mice (C57B16/J); settings: 60 min treatment + 60 min room air, DMT-d10 5.6 mg/kg s.c., N2O 50% inhaled
[5] = system: fibroblast growth factor 2 (fgf2); assay: RTqPCR gene expression in mouse left frontal cortex: fgf2; settings: 60 min treatment + 60 min room air, DMT-d10 5.6 mg/kg s.c., N2O 50% inhaled
[6] = Plasma pharmacokinetics of co-administered DMT and DMT-d10 in male rats (IV bolus, oral gavage, inhalation); settings: for time of highest plasma concentration (first time point taken): IV bolus 1 mg/kg each; for time of highest plasma concentration (first time point taken) / mean residence time (MRT) after inhalation compared to IV administration: male rats; for F (bioavailability), inhalation: inhalation 14.3 (DMT) + 15.5 (DMT-d10) mg/kg, calculated from dose normalized AUC0-1 mean values vs Group 4 IV; for mean residence time (MRT) after inhalation compared to IV administration: inhalation vs IV; for AUC0-1/dose: plasma
syn1 = assay: RTqPCR gene expression in mouse left frontal cortex: syn1; format: in vivo, mice (C57B16/J); settings: 60 min treatment + 60 min room air, DMT-d10 5.6 mg/kg s.c., N2O 50% inhaled
[7] = target: T1, serotonin 5-HT2A receptor (Mus musculus, UniProt P35363); assay: Head twitch response (HTR) in mice, DMT-d10 with or without N2O; format: in vivo, mice (C57B16/J); settings: DMT-d10 5.6 mg/kg s.c.; for head twitch responses (HTRs), result in words: mice, room air or N2O 50%, first 30 minutes; for Mean rank diff., total HTRs: Dunn's multiple comparisons, Veh/Air vs. treatment, N2O 50% inhaled
T1 construct: Mice were exposed to a medium dose of the 5-HT2A agonist DMT-d10; from tissue; host or cells: living adult male C57Bl6/J mice (in vivo behavioural assay)
T1 sequence (P35363 whole entry): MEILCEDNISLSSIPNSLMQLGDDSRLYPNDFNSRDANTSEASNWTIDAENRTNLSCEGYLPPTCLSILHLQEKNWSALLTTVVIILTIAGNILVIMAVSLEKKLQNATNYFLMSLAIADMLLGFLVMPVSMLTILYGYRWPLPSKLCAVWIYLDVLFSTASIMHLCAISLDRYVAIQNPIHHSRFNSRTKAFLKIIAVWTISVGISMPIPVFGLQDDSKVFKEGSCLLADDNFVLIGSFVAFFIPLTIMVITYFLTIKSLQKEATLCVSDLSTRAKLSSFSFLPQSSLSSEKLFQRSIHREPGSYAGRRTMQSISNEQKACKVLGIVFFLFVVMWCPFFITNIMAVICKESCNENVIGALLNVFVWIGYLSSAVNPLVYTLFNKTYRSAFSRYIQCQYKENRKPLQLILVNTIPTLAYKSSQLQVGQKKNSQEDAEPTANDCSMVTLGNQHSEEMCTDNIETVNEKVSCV
Description: Experiment 1—Effect of N2O on the pharmacodynamic effects of DMT-d10. The dose-dependent behavioral effects of N2O on DMT-d10-induced head twitch response (HTR) in mice was determined.
Rationale: The head-twitch response (HTR) is a rapid side-to-side head movement that occurs in mice and rats after the serotonin 5-HT2A receptor is activated. The HTR is widely used as a behavioral assay for 5-HT2A activation and to probe for interactions between the 5-HT2A receptor and other transmitter systems (see Halberstadt, A. L. & Geyer, M. A. Characterization of the head-twitch response induced by hallucinogens in mice: detection of the behavior based on the dynamics of head movement. Psychopharmacology (Berl) 227, 10.1007/s00213-013-3006-z (2013); Canal, C. E. & Morgan, D. Head-twitch response in rodents induced by the hallucinogen 2,5-dimethoxy-4-iodoamphetamine: a comprehensive history, a re-evaluation of mechanisms, and its utility as a model. Drug Test Anal 4, 556-576 (2012)).
Data analysis: The number of head twitches over the first 30 minutes was summed (0-15 minutes, 15-30 minutes intervals) and analyzed by non-parametric Kruskal Wallis test with Dunn's multiple comparison tests between groups.

[8] = system: Adult Male Laboratory Mice (C57B16/J); assay: Locomotor activity (distance travelled, Ethovision) in mice; format: in vivo; settings: DMT-d10 5.6 mg/kg s.c.; for Mean rank diff., total distance travelled: Dunn's multiple comparisons, Veh/Air vs. treatment, N2O 50% inhaled
human participants = settings: cited from earlier work
[9] = rats, intraperitoneal injection; cited from earlier work
[10] = system: head-twitch responses (HTRs); settings: 1 mg/kg, intraperitoneal, rats and mice; cited from earlier work
[11] = human, intravenous; cited from earlier work
neural oscillations = assay: Experiment 7: topographic pharmaco-EEG mapping of N2O+DMT (planned); settings: healthy humans, following DMT administration
[12] = brain, male rats, IV bolus 1 mg/kg each (Group 4)
[13] = Inhalation 14.3 (DMT) / 15.5 (DMT-d10) mg/kg
[14] = IV bolus of DMT (as fumarate salt) 0.05-0.4 mg/kg

COc1ccc2[nH]cc(CCN(C)C)c2c1 [5-MeO-DMT, 5-methoxy-N,N-dimethyltryptamine]
elimination half-life [1]: 12 to 19 min

[2H]C([2H])([2H])N(C([2H])([2H])[2H])C([2H])([2H])C([2H])([2H])c1c[nH]c2ccccc12 [DMT-d10]
c-fos gene expression, percentage change compared to control (Veh/Air), % mean (c-fos): 18.57%
egr2 gene expression, percentage change compared to control (Veh/Air), % mean [2]: 8.24%
bdnf gene expression, percentage change compared to control (Veh/Air), % mean (bdnf): −9.25%
sgk1 gene expression, percentage change compared to control (Veh/Air), % mean [3]: 15.58%
improvement of brain to plasma (B/P) ratio by deuteration ([4]; DMT-d10 vs. DMT, IV 1 mg/kg, rats): approximately 30%
Brain AUC0-t [4, 12]: 931 ng·h/g
Brain Cmax ([4]; brain, male rats): 1490 ng/g
homer1 gene expression, percentage change compared to control (Veh/Air), % mean (homer1): 2.44%
fgf2 gene expression, percentage change compared to control (Veh/Air), % mean [5]: 3.13%
increase of inhalation bioavailability by deuteration ([6]; DMT-d10 vs. DMT, inhalation, rats): approximately 40%
time of highest plasma concentration (first time point taken) [6]: 0.083 h
F (bioavailability), inhalation [6]: 22.6%
mean residence time (MRT) after inhalation compared to IV administration [6]: approximately 5 ×
AUC0-1/dose [6, 13]: 17.0
AUC0-1/dose ([6]; Intravenous 1 mg/kg each): 75.4
AUC0-1/dose ([6]; Oral 10 mg/kg each): 0.878
syn1 gene expression, percentage change compared to control (Veh/Air), % mean (syn1): 1.47%
head twitch responses (HTRs), result in words [7]: modest number of HTRs
Mean rank diff., total HTRs ([7]; minutes 0-15): −22.65
Mean rank diff., total HTRs ([7]; minutes 15-30): −12.80
distance travelled (locomotor behavior), result in words ([8]; mice, room air or N2O 50%, minutes 0-15 and 15-30): travelled less distance than the vehicle/air group
Mean rank diff., total distance travelled ([8]; minutes 0-15): 16.50
Mean rank diff., total distance travelled ([8]; minutes 15-30): 19.30

[N-]=[N+]=O [N2O, nitrous oxide]
c-fos gene expression, percentage change compared to control (Veh/Air), % mean (c-fos): 32.29%
egr2 gene expression, percentage change compared to control (Veh/Air), % mean [2]: 38.30%
bdnf gene expression, percentage change compared to control (Veh/Air), % mean (bdnf): 15.67%
sgk1 gene expression, percentage change compared to control (Veh/Air), % mean [3]: 33.82%
homer1 gene expression, percentage change compared to control (Veh/Air), % mean (homer1): 29.35%
fgf2 gene expression, percentage change compared to control (Veh/Air), % mean [5]: 5.24%
syn1 gene expression, percentage change compared to control (Veh/Air), % mean (syn1): 13.38%
head twitch responses (HTRs), result in words [7]: attenuates DMT-d10-induced HTRs
Mean rank diff., total HTRs ([7]; minutes 0-15): −1.250
Mean rank diff., total HTRs ([7]; minutes 15-30): 0.000
Mean rank diff., total distance travelled ([8]; minutes 0-15): −11.40
Mean rank diff., total distance travelled ([8]; minutes 15-30): −8.000

CN(C)CCc1c[nH]c2ccccc12 [DMT, N,N-dimethyltryptamine]
hallucinogenic effect (human participants; 0.1 mg/kg IV): not hallucinogenic
hallucinogenic effect (human participants; 0.2 and 0.4 mg/kg IV): nearly instantaneous onset of visual hallucinatory phenomena
time by which psycho-biological effects resolve (human participants; [14]): ≤ 30 minutes
time of peak of psycho-biological effects (human participants; [14]): 120 seconds
duration of effect of vaporized DMT (human participants; vaporized or inhaled free-base, 40-50 mg): less than 30 min
elimination half-life [1]: 12 to 19 min
half-life [9]: 5 to 15 min
time to be metabolized and cleared from brain, liver, and plasma [9]: ≤ 1 h
hallucinogenic potential as measured by head-twitch responses (HTRs) [10]: sub-hallucinogenic
Brain AUC0-inf [4, 12]: 1070 ng·h/g
Brain AUC0-t [4, 12]: 1060 ng·h/g
Brain Cmax ([4]; brain, male rats): 3430 ng/g
half-life [11]: around 15 minutes
time to peak plasma concentrations [11]: approximately 2 minutes
absolute power in EEG frequency bands (neural oscillations): decreased absolute power in all frequency bands
time of highest plasma concentration (first time point taken) [6]: 0.083 h
F (bioavailability), inhalation [6]: 16.3%
mean residence time (MRT) after inhalation compared to IV administration [6]: approximately 5 ×
AUC0-1/dose [6, 13]: 18.2
AUC0-1/dose ([6]; Intravenous 1 mg/kg each): 112
AUC0-1/dose ([6]; Oral 10 mg/kg each): 1.52
